Test results reported in US12590108B2, “Boracic acid compound” (Phaeno Therapeutics Co., Ltd, priority 2020, dated 2026).

Assays:
[1] = system: Klebsiella pneumoniae ATCC BAA-1705; experiment: Mouse thigh muscle infection model, bacterial load; type: in vivo, CD-1 female mice; conditions: endpoint 12 h
Method: (§1) 36 CD-1 female mice were divided into 12 cages with 3 […] in each cage. The day of infection was denoted as day 0.
(§2) Immunosuppressant cyclophosphamide at 150 mg/kg was injected intraperitoneally on day −4 and immunosuppressant cyclophosphamide at 100 mg/kg was injected intraperitoneally on day −1 to induce immunodeficient mice.
On day −1, the strain Klebsiella pneumoniae ATCC BAA-1705 was resuscitated on an MHA plate. Resuscitated colonies were picked and dissolved in sterile physiological saline to prepare a bacterial solution with a concentration of 5.6E+07 CFU/mL for thigh muscle infection in mice. The initial time of infection was denoted as 0 h, and 100 μL of the bacterial solution was injected into each mouse at the thigh muscle at 0 h, that is, the inoculation amount was 5.6E+06 CFU/mouse. 2 h after infection, dosing was performed according to the experimental scheme. The specific experimental scheme was as follows (see Table 4): • (1) 2 h after infection: for the 1st cage of mice, at the endpoint, thigh muscle tissue was taken and placed in 10 mL of sterile physiological saline, the tissue was homogenized by a homogenizer, and the homogenate was diluted in a gradient and spotted in a plate, with two replicates for each mouse. • (2) 2 h after infection: the 2nd to 12th cages were respectively treated at 10 mL/kg by volume according to the body weight of the mice, the 2nd cage of mice were given a vehicle by intravenous injection every 2 h, and the endpoint was 12 h; the 3rd cage of mice were given 100 mg/kg of meropenem by intravenous injection every 2 h, and the endpoint was 12 h; the 4th cage of mice were given 100 mg/kg of meropenem and 20 mg/kg of QPX7728 by intravenous injection every 2 h, and the endpoint was 12 h; the 5th cage of mice were given 100 mg/kg of meropenem and 100 mg/kg of compound 15 by intravenous injection every 2 h, and the endpoint was 12 h; the 6th cage of mice were given 100 mg/kg of meropenem and 20 mg/kg of compound 15 by intravenous injection every 2 h, and the endpoint was 12 h; the 7th cage of mice were given 100 mg/kg of meropenem and 4 mg/kg of compound 15 by intravenous injection every 2 h, and the endpoint was 12 h; the 8th cage of mice were given 100 mg/kg of cefepime by intravenous injection every 2 h, and the endpoint was 12 h; the 9th cage of mice were given 100 mg/kg of cefepime and 20 mg/kg of QPX7728 by intravenous injection every 2 h, and the endpoint was 12 h; the 10th cage of mice were given 100 mg/kg of cefepime and 100 mg/kg of compound 15 by intravenous injection every 2 h, and the endpoint was 12 h; the 11th cage of mice were given 100 mg/kg of cefepime and 20 mg/kg of compound 15 by intravenous injection every 2 h, and the endpoint was 12 h; and the 12th cage of mice were given 100 mg/kg of cefepime and 4 mg/kg of compound 15 by intravenous injection every 2 h, and the endpoint was 12 h. At the endpoint of 12 h, thigh muscle tissue was taken and placed in 10 mL of sterile physiological saline, the tissue was homogenized by a homogenizer, and the homogenate was diluted in a gradient and spotted in a plate, with two replicates for each mouse. The bacterial load in the thigh muscle tissue of the mice was counted, and the experiment was summarized as follows (see Table 5): […]

[2] = system: Klebsiella pneumoniae ATCC BAA-1705; experiment: Mouse lung infection model, bacterial load; type: in vivo, CD-1 female mice; conditions: endpoint 12 h
Method: as §1, §2
On day −1, the strain Klebsiella pneumoniae ATCC BAA-1705 was resuscitated on an MHA plate. Resuscitated colonies were picked and dissolved in sterile physiological saline to prepare a bacterial solution with a concentration of 2.75E+08 CFU/mL for lung infection by nasal drip. The initial time of infection was denoted as 0 h, and 50 μL of the bacterial solution was injected into each mouse by nasal drip at 0 h, that is, the inoculation amount was 1.38E+07 CFU/mouse. 2 h after infection, dosing was performed according to the experimental scheme. The specific experimental scheme was as follows (see Table 6): • (1) 2 h after infection: for the 1st cage of mice, at the endpoint, lung tissue was taken and placed in 10 mL of sterile physiological saline, the tissue was homogenized by a homogenizer, and the homogenate was diluted in a gradient and spotted in a plate, with two replicates for each mouse. • (2) 2 h after infection: the 2nd to 12th cages were respectively treated at 10 mL/kg by volume according to the body weight of the mice, the 2nd cage of mice were given a vehicle by intravenous injection every 2 h, and the endpoint was 12 h; the 3rd cage of mice were given 100 mg/kg of meropenem by intravenous injection every 2 h, and the endpoint was 12 h; the 4th cage of mice were given 100 mg/kg of meropenem and 20 mg/kg of QPX7728 by intravenous injection every 2 h, and the endpoint was 12 h; the 5th cage of mice were given 100 mg/kg of meropenem and 100 mg/kg of compound 15 by intravenous injection every 2 h, and the endpoint was 12 h; the 6th cage of mice were given 100 mg/kg of meropenem and 20 mg/kg of compound 15 by intravenous injection every 2 h, and the endpoint was 12 h; the 7th cage of mice were given 100 mg/kg of meropenem and 4 mg/kg of compound 15 by intravenous injection every 2 h, and the endpoint was 12 h; the 8th cage of mice were given 100 mg/kg of cefepime by intravenous injection every 2 h, and the endpoint was 12 h; the 9th cage of mice were given 100 mg/kg of cefepime and 20 mg/kg of QPX7728 by intravenous injection every 2 h, and the endpoint was 12 h; the 10th cage of mice were given 100 mg/kg of cefepime and 100 mg/kg of compound 15 by intravenous injection every 2 h, and the endpoint was 12 h: the 11th cage of mice were given 100 mg/kg of cefepime and 20 mg/kg of compound 15 by intravenous injection every 2 h, and the endpoint was 12 h; and the 12th cage of mice were given 100 mg/kg of cefepime and 4 mg/kg of compound 15 by intravenous injection every 2 h, and the endpoint was 12 h. At the endpoint, lung tissue was taken and placed in 10 mL of sterile physiological saline, the tissue was homogenized by a homogenizer, and the homogenate was diluted in a gradient and spotted in a plate, with two replicates for each mouse. The bacterial load in the lung tissue of the mice was counted, and the experiment was summarized as follows (see Table 7): […]

[3] = antibiotic alone 100 mg/kg i.v. q2h
[4] = cefepime 100 mg/kg + inhibitor 20 mg/kg i.v. q2h
[5] = meropenem 100 mg/kg + inhibitor 20 mg/kg i.v. q2h

Row | SMILES | Average CFU in mice (thigh muscle tissue) [1, 3] | Average CFU in mice (lung tissue) [2, 3] | Average CFU in mice (thigh muscle tissue) [1, 4] | Average CFU in mice (thigh muscle tissue) [1, 5] | Average CFU in mice (lung tissue) [2, 4] | Average CFU in mice (lung tissue) [2, 5]
1 | CO/N=C(\C(=O)N[C@@H]1C(=O)N2C(C(=O)[O-])=C(C[N+]3(C)CCCC3)CS[C@H]12)c1csc(N)n1 [Cefepime, cefepime, reference compound] | 4.25E+07 CFU/mouse | 1.90E+08 CFU/mouse |  |  |  | 
2 | O=C(O)c1c(F)ccc2c1OB(O)[C@@H]1C[C@H]21 [QPX7728, reference compound] |  |  | 1.50E+07 CFU/mouse | 1.02E+07 CFU/mouse | 2.68E+06 CFU/mouse | 8.42E+06 CFU/mouse
